Assays:
[1] = Cytotoxicity against African green monkey Vero cells assessed as reduction in cell viability incubated for 3 to 5 days by Cell titer-glo luminescent assay; format: toxicity, cell-based; details: chlorocebus sabaeus, time 3-5 day
Dengue virus type 2 = assay: Antiviral activity against DENV New Guinea C strain infected in African green monkey Vero cells assessed as reduction in viral infection measured after 5 days by plaque assay; details: 120 h
[2] = Inhibition of full length human recombinant Endoplasmic reticulum alpha-glucosidase 1 expressed in Escherichia coli using trisaccharide as substrate incubated for 60 mins
[3] = Inhibition of full length N-terminal his6-tagged mouse recombinant Endoplasmic reticulum alpha-glucosidase 2 expressed in DH10 Escherichia coli using Fluorogenic 1,4-methyl-lumbelliferon as substrate preincubated for 60 mins followed by substrate addition and measured after 30 mins
SARS-CoV-2 = assay: Antiviral activity against SARS-CoV-2 England/2/2022 assessed as reduction in viral infection; format: functional, organism-based; details: Severe acute respiratory syndrome coronavirus 2, England/2/2022
[4] = Selectivity index, ratio of CC50 for cytotoxicity against African green monkey Vero cells to IC50 for antiviral activity against DENV New Guinea C strain infected in African green monkey Vero cells; format: toxicity, cell-based; details: read-out: Ratio CC50/IC50

SMILES | CC50 [1] [mM] | IC50 (Dengue virus type 2) [µM] | IC50 [2] [nM] | IC50 [3] [nM] | IC50 (SARS-CoV-2) [µM] | selectivity ratio [4]
[N-]=[N+]=Nc1ccc(NCCOCCN[C@H]2C[C@](O)(CO)[C@@H](O)[C@H](O)[C@H]2O)c([N+](=O)[O-])c1 | 1.75 | 293 | 3660 | 37000 | – | –
[N-]=[N+]=Nc1ccc(NCCCCN[C@H]2C[C@](O)(CO)[C@@H](O)[C@H](O)[C@H]2O)c([N+](=O)[O-])c1 | 1.02 | 61.4 | 2420 | 1010 | 9.48 | –
[N-]=[N+]=Nc1ccc(NCCOC(=O)NCCN[C@H]2C[C@](O)(CO)[C@@H](O)[C@H](O)[C@H]2O)c([N+](=O)[O-])c1 | > 1 | > 1000 | 1130 | – | 53.7 | –
O=[N+]([O-])c1cc(-n2ccnn2)ccc1NCCCCCCN[C@H]1C[C@](O)(CO)[C@@H](O)[C@H](O)[C@H]1O | 1.38 | 13.5 | 1270 | 15.5 | 292 | 102
[N-]=[N+]=Nc1ccc(NCCCCCCN[C@H]2C[C@](O)(CO)[C@@H](O)[C@H](O)[C@H]2O)c([N+](=O)[O-])c1 | 0.121 | 1.38 | 730 | 33.7 | 12.3 | 88
N[C@H]1C[C@](O)(CO)[C@@H](O)[C@H](O)[C@H]1O [VALIOLAMINE] | 0.831 | > 1000 | 87400 | > 100000 | > 1000 | –
O=[N+]([O-])c1cc(-n2cnnn2)ccc1NCCCCCCN[C@H]1C[C@](O)(CO)[C@@H](O)[C@H](O)[C@H]1O | 1.36 | > 1000 | 32000 | 1420 | – | –
O=[N+]([O-])c1cc(-n2nccn2)ccc1NCCCCCCN[C@H]1C[C@](O)(CO)[C@@H](O)[C@H](O)[C@H]1O | 0.126 | 18.2 | 47.9 | < 1 | > 100 | 6.9
O=[N+]([O-])c1cc(-c2ncccn2)ccc1NCCCCCCN[C@H]1C[C@](O)(CO)[C@@H](O)[C@H](O)[C@H]1O | 0.761 | 105 | 644 | 1.1 | 70 | –
CCCCN[C@H]1C[C@](O)(CO)[C@@H](O)[C@H](O)[C@H]1O | > 1 | 158 | 29500 | – | – | –
COCCCCCCCCCN[C@H]1C[C@](O)(CO)[C@@H](O)[C@H](O)[C@H]1O | 1.07 | 75.9 | 10800 | 490 | 270 | –
CCCCN1C[C@H](O)[C@@H](O)[C@H](O)[C@H]1CO | – | – | – | – | 42.2 | –

— ChEMBL document CHEMBL5150012, “N-Substituted Valiolamine Derivatives as Potent Inhibitors of Endoplasmic Reticulum α-Glucosidases I and II with Antiviral Activity” (J Med Chem, 2021)
